Data reported in patent US20150133411A1, “COMPOUNDS WITH TRPV4 ACTIVITY, COMPOSITIONS AND ASSOCIATED METHODS THEREOF” (The University of Utah Research Foundation, priority 2012, published 2015).

Legend:
retinal ganglion cells [1] = assay: TUNEL assay of apoptotic cell death in retinas; format: cell-based; details: Compound 1 1 uM, RuR 10 μM
Experimental: Terminal deoxynucleotidyl transferase-mediated dUTP-biotin nick end labeling (TUNEL) is a common method for detecting fragmentation that results from apoptotic signaling cascades. Retinas were embedded, cryosectioned, and processed for the TUNEL assay following the protocol by Gavrieli et al. (1992). After 30 min. rehydration in 70% ethanol, 2×5 min. rinses in PBS and 1% Triton-X in 1% citrate buffer (pH 7.3), the slides were subjected to a final rinse in PBS. Slides were then incubated for 30 min. in the reaction buffer (30 mM Trizma-HCl, 140 mM cacodylate, 1.0 mM CaCl2, 0.2% Triton X-100, pH 7.2). Positive controls were treated with DNAse I (Roche Diagnostics; Branford, Conn.; 10 U/ml) in the reaction buffer. Next, slides were treated for 1 hour with 0.03 units/μl terminal transferase and 4 μM biotin-16-dUTP (Roche Diagnostics). The reaction was terminated in 30 mM Na+ citrate, 300 mM NaCl and 0.2% Triton X-100 in PBS (5 min.) and rinsed in PBS (2×5 min), exposed to 1% bovine serum albumin in PBS for 20 min and rinsed. Apoptotic cells were visualized with a confocal microscope (Zeiss LSM510) and categorized by size. […] This was blocked by RuR and by the TRPV4 antagonist Compound 1.

retinal ganglion cells [2] = assay: In vivo intraocular injection of GSK, NeuN+ RGC count; details: intraocular GSK, 48 hours
Experimental: In this experiment, GSK (100-300 nM) was injected intraocularly with a Hamilton syringe. Retinas were isolated after 48 hours, fixed and labeled with the RGC marker antibody NeuN. NeuN-immunopositive somata in the ganglion cell layer, shown in the panel on the right, were counted. The bar graph represents quantification of NeuN^+ cells in the indicated experimental groups.

[3] = test system: retinal neurons (RGCs) and glia (Müller cells); assay: Hypotonic stimuli: cell swelling (change in cell area) and [Ca++]i; format: cell-based
From the text: FIG. 18A illustrates the effect of hypotonic stimuli on cell swelling as measured by change in cell area. Hypotonic stimuli were generated by replacing extracellular sodium levels to lower osmolarity from 300 mOsm to 190 mOsm.

TRPV4 [4] = target: T1, TRPV4 (Mus musculus, UniProt Q9EPK8); assay: AGB cation influx into retinal cells (anti-AGB antibody); format: cell-based; design: these two cell types express TRPV4 channels in the mouse retina; from tissue; host or cells: mouse retina (retinal ganglion cells and Müller glial cells); details: mouse retina
T1 sequence (Q9EPK8 whole entry): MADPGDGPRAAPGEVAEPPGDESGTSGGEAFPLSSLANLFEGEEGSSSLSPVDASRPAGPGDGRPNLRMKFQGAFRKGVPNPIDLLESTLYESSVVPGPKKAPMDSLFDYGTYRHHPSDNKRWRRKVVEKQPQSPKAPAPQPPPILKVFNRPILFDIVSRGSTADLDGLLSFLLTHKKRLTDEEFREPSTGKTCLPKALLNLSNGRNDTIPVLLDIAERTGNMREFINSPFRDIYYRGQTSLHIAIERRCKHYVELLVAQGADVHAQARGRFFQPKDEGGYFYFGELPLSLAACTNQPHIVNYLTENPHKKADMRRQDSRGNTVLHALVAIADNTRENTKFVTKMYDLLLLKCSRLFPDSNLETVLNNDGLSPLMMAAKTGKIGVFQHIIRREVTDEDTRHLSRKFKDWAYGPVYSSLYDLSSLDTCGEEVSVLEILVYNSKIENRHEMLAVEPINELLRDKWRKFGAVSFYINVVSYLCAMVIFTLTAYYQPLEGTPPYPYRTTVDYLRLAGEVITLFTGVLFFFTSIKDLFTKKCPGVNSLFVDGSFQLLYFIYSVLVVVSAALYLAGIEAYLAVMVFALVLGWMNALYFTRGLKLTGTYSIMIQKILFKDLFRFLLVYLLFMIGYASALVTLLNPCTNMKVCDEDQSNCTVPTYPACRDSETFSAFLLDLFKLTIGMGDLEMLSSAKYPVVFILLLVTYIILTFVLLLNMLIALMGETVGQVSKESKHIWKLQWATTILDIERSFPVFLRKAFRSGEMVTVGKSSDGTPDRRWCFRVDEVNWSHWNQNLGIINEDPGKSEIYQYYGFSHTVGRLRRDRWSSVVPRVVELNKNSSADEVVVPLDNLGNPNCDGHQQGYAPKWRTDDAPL
Experimental: FIG. 16 illustrates the effect of the TRPV4 agonist GSK on cation influx into mouse retinal cells of the mouse retina. The influx was determined using the anti-AGB antibody, as described by Marc R E (J Comp Neurol 407(1): 47-64, 1999). AGB is a membrane permeant cation that can flow through most known cation channels. Using an anti-AGB antibody, it can be determined where the cation flux occurs and, therefore, which cells are activated.

Müller cells = assay: Arachidonic acid-induced [Ca2+]i in Müller cells; format: cell-based; details: 1 μM, 10 μM arachidonic acid
Experimental: This response is blocked by Compound 1 (1 μM).

MB model of glaucoma = assay: IOP time course after single eye drop in MB model of glaucoma; format: in vivo, mouse; details: single dose eye drop
Experimental: Specifically, microbeads (MBs) were injected into the anterior chamber of a mouse eye as described in Example 2 with PBS-injected eyes used as controls. Compound 1 (10 mg/kg body weight) (or PBS vehicle) was injected intraperitoneally (IP). […] IOP was measured in mice between 10:00 AM and 1:00 PM with the TonoLab rebound tonometer (Colonial Medical Supply, Franconia, NH/Tyolat, Helsinki, Finland). Mice were sedated with IP injection of Avertin with final amount calculated by weight (e.g., 0.5 ml for 21-24 g animals). Animals were placed on a jack stand platform and the tonolab was clamped on a ring stand and centered onto the mid-cornea. During measurements animal were neither restrained nor touched. Each eye was measured twenty consecutive times, the highest and lowest values were discarded and the values were averaged.
FIG. 9 illustrates the short-term effects of a single dose of Compound 1 (eye drop) in the MB model of glaucoma. IOP was measured as described in Example 3 at the indicated time points after receiving a drop of Compound 1. Compound 1 reduced IOP beginning at 1 hour after dosing and continued through 6 hours after dosing.
FIG. 10 illustrates a time course of Compounds 1, 2, 5 and Compound 2-HCl as well as a positive control compound, timolol, with regard to inhibition of IOP. The experiment was conducted as described in Example 9. Each of the TRPV4 antagonists reduced IOP with a similar time course. Specifically, Compounds 1, 2, 5 and Compound 2-HCl reduced IOP for at least 6 hours after dosing.
FIG. 11 illustrates a time course of Compound 2-HCl activity. The experiment was conducted as described in Example 9. […] 2
FIG. 12 illustrates a comparison of the time course of Compound 2-HCl and Compound 5. The experiment was conducted as described in Example 9.

TRPV4 [5] = target: T1, TRPV4; assay: GSK-evoked [Ca++]i in retinal Müller glial cells; format: cell-based; design: endogenous in cells; host or cells: retinal Müller glial cells
retinal ganglion cells [6] = assay: Hypotonic swelling-induced calcium influx into retinal ganglion cells (Fura-2); format: cell-based; details: FIG. 17C
From the text: Cells were labeled with fluorescent calcium indicator dye Fura-2 and exposed to hypotonic solutions in which extracellular sodium was replaced by the osmotically inert substance mannitol, as described in […] et al. (J Neurosci. 2011 May 11; 31(19):7089-101; PMID 21562271).

Cc1c(C(=O)Nc2cccc(C(F)(F)F)c2)cc(-c2ccccc2)n1CCCN1CCOCC1 [Compound 1, N-(3-(trifluoromethyl)phenyl)-2-methyl-1-(3-morpholinopropyl)-5-phenyl-1H-pyrrole-3-carboxamide]
apoptotic cell death induced by hypotonic swelling (TUNEL) (retinal ganglion cells [1]; 190 mOsm saline): block apoptotic cell death
apoptotic cell death induced by TRPV4 agonist GSK (TUNEL) (retinal ganglion cells [1]; GSK 100 nM): block apoptotic cell death
effect on GSK-induced degeneration of RGC (retinal ganglion cells [2]): blocked
hypotonic stimuli-induced increase in [Ca++]i ([3]; FIG. 18B): inhibited
cell swelling (change in cell area) ([3]; hypotonic stimuli, 300 mOsm to 190 mOsm): prevented hypotonic stimuli-mediated cell swelling to the same extent as BAPTA-AM
effect on GSK-induced AGB cation influx (TRPV4 [4]): strongly antagonized
effect on arachidonic acid-induced [Ca2+]i increase (Müller cells): blocked
time after dosing at which IOP reduction begins (MB model of glaucoma): 1 h
effect on GSK-evoked increase in [Ca++]i (TRPV4 [5]; retinal Müller glial cells): blocked
reversibility of effect on glial calcium levels (TRPV4 [5]; superfusion with control saline): reversible, as it can be washed out by 10 minute superfusion with control saline
pressure-dependent influx of calcium in RGCs (retinal ganglion cells [6]): prevents
